Target: T1, KRAS G12C 1-169, his-tagged protein, GDP-loaded (Homo sapiens, UniProt P01116, G12C)
T1 construct: KRAS G12C 1-169, his-tagged protein, GDP-loaded
Test: Biochemical assay: covalent modification of KRAS G12C measured by mass spectrometry (RapidFire/TOF or Q-Exactive)
Conditions: covalent binding to KRAS G12C
Procedure: Test compounds were prepared as 10 mM stock solutions in DMSO (Fisher cat #BP-231-100). KRAS G12C 1-169, his-tagged protein, GDP-loaded was diluted to 2 μm in buffer (20 mM Hepes, 150 mM NaCl, 1 mM MgCl2). Compounds were tested for activity as follows:
Compounds were diluted to 50× final test concentration in DMSO in 96-well storage plates. Compound stock solutions were vortexed before use and observed carefully for any sign of precipitation. Dilutions were as follow: • For 100 μM final compound concentration, compounds were diluted to 5000 μM (5 μl 10 mM compound stock+5 μl DMSO and mixed well by pipetting. • For 30 μM final compound concentration, compounds were diluted to 1500 μM (3 μl 10 mM compound stock+17p DMSO) and mixed well by pipetting. • For 10 μM final compound concentration, compounds were diluted to 500 μM (2 μl 10 mM compound stock+38p DMSO) and mixed well by pipetting. 49p of the stock protein solution was added to each well of a 96-well PCR plate (Fisher cat #1423027). 1 μl of the diluted 50× compounds were added to appropriate wells in the PCR plate using 12-channel pipettor. Reactions were mixed carefully and thoroughly by pipetting up/down with a 200·1 multi-channel pipettor. The plate was sealed well with aluminum plate seal, and stored in drawer at room temperature for 30 min, 2 hour or 24 hrs. 5·1 of 2% formic acid (Fisher cat #A117) in DI H2O was then added to each well followed by mixing with a pipette. The plate was then resealed with aluminum seal and stored on dry ice until analyzed as described below.
The above described assays were analyzed by mass spectrometry according to one of the following two procedures:
The MS instrument is set to positive polarity, 2 GHz resolution, and low mass (1700) mode and allowed to equilibrate for 30 minutes. The instrument is then calibrated, switched to acquisition mode and the appropriate method loaded.
After another 30 minute equilibration time, a blank batch (i.e., buffer) is run to ensure equipment is operating properly. The samples are thawed at 37° C. for 10 minutes, briefly centrifuged, and transfer to the bench top. Wells A1 and H12 are spiked with 1 uL 500 uM internal standard peptide, and the plates centrifuged at 2000×g for 5 minutes. The method is then run and masses of each individual well recorded.
The masses (for which integration data is desired) for each well are pasted into the platemap and exported from the analysis. Masses for the internal standards are exported as well. The data at 50 ppm is extracted for the +19 charge state, and identity of well A1 is assigned using the internal standard spike and integrated. Peak data is exported as a TOF list and the above steps are repeated individually, for the +20, 21, 22, 23, 24, and 25 charge states.
The masses and peak intensities of KRAS G12C protein species were measured using a Dionex RSLCnano system (Thermo Scientific) connected to a Q Exactive Plus mass spectrometer (Thermo Scientific).
[…] of sample was each loaded onto a Aeris™ 3.6 μm WIDEPORE C4 200 Å, LC Column 50×2.1 mm column maintained at 40° C. at a flow rate of 600 μl min^−1 with […] (0.1% formic acid in acetonitrile). The liquid chromatography conditions were 20% solvent B for 1 min, 20% to 60% solvent B for 1.5 min, 60% to 90% solvent for 0.5 min, 90% solvent B for 0.2 min, 90% to 20% solvent B for 0.2 min, and then equilibrated for 1.6 min before the following sample injection. The flow rate was maintained at 600 μl min^−1 throughout the sample analysis.
The mass spectrometer was operated in profile mode at a resolution of 17500, 5 microscans, using 50 msec max injection time and an AGC target of 1e6, and a full mass range from 800-1850 m/z was recorded. The HCD trapping gas was optimized for maximum sensitivity for intact proteins. […]

Row | Structure (SMILES) | Binding % (compounds of structure (I)) | further results
1 | C=CC(=O)N1CCN(c2nc(NC3CCN(CC(F)(F)F)CC3)nc3c(F)c(-c4c(C)ccc5[nH]ncc45)c(Cl)cc23)CC1 [Example I-12, 1-(4-(6-chloro-8-fluoro-7-(5-methyl-1H-indazol-4-yl)-2-(1-(2,2,2-trifluoroethyl)piperidin-4-ylamino)quinazolin-4-yl)piperazin-1-yl)prop-2-en-1-one] | ++ (++ indicates binding activity from 50 to 90%) | 
2 | C=CC(=O)N1CCN(c2nc(OCc3ncccn3)nc3c(F)c(-c4c(O)cccc4F)c(Cl)cc23)CC1 [Example I-105, 1-(4-(6-chloro-8-fluoro-7-(2-fluoro-6-hydroxyphenyl)-2-(pyrimidin-2-ylmethoxy)quinazolin-4-yl)piperazin-1-yl) prop-2-en-1-one] | +++ (+++ indicates binding activity greater than 90%) | 
3 | C=CC(=O)N1CCN(c2nc(OC3CCOCC3)nc3c(F)c(-c4c(C)ccc5[nH]ncc45)c(Cl)cc23)CC1 [Example I-13, 1-(4-(6-chloro-8-fluoro-7-(5-methyl-1H-indazol-4-yl)-2-(tetrahydro-2H-pyran-4-yloxy)quinazolin-4-yl)piperazin-1-yl)prop-2-en-1-one] | +++ (+++ indicates binding activity greater than 90%) | 
4 | C=CC(=O)N1CCN(c2nc(OC3CCN(C4CC4)CC3)nc3c(F)c(-c4c(C)ccc5[nH]ncc45)c(Cl)cc23)CC1 [Example I-194] | + (+ indicates binding activity up to 50%) | 
5 | C=CC(=O)N1CCN(c2nc(OCC(O)CN(C)C)nc3c(F)c(-c4c(C)ccc5[nH]ncc45)c(Cl)cc23)CC1 (stereo not shown) [Example I-53, 1-(4-(6-chloro-2-(3-(dimethyl-amino)-2-hydroxy-propoxy)-8-fluoro-7-(5-methyl-1H-indazol-4-yl)quinazolin-4-yl)piperazin-1-yl)prop-2-en-1-one] | +++ (+++ indicates binding activity greater than 90%) | 
6 | C=CC(=O)N1C[C@@H](C)N(c2ncnc3c(F)c(-c4c(O)cccc4F)c(Cl)cc23)[C@H](C)C1 [III-33, 1-((3R,5R)-4-(6-chloro-8-fluoro-7-(2-fluoro-6-hydroxy-phenyl)quinazolin-4-yl)-3,5-dimethyl-piperazin-1-yl)prop-2-en-1-one] |  | Binding % (compounds of structure (III)): + (+ indicates binding activity up to 50%)
7 | C=CC(=O)N1CCN(c2nc(N3CC(N4CCC(F)(F)CC4)C3)nc3c(F)c(-c4c(O)cccc4F)c(Cl)cc23)CC1 [Example I-23, 1-(4-(6-chloro-2-(3-(4,4-difluoro-piperidin-1-yl)azetidin-1-yl)-8-fluoro-7-(2-fluoro-6-hydroxyphenyl)quinazolin-4-yl)piperazin-1-yl) prop-2-en-1-one] | ++ (++ indicates binding activity from 50 to 90%) | 
8 | C=CC(=O)Nc1cccc(-c2ncnc3c(F)c(-c4c(O)cccc4F)c(Cl)cc23)c1 [II-11, N-(3-(6-chloro-8-fluoro-7-(2-fluoro-6-hydroxyphenyl)quinazolin-4-yl)phenyl)acrylamide] |  | Binding % (compounds of structure (II)): + (+ indicates binding activity up to 50%)
9 | C=CC(=O)N1CCN(c2nc(OCc3cccc(C)n3)nc3c(F)c(-c4c(O)cccc4F)c(Cl)cc23)CC1 [Example I-99, 1-(4-(6-chloro-8-fluoro-7-(2-fluoro-6-hydroxyphenyl)-2-((6-methyl-pyridin-2-yl)methoxy)quinazolin-4-yl)piperazin-1-yl)prop-2-en-1-one] | +++ (+++ indicates binding activity greater than 90%) | 
10 | C=CC(=O)N1CCN(c2nc(OCC3CCN(CC(F)(F)F)CC3)nc3c(F)c(-c4c(O)cccc4F)c(Cl)cc23)CC1 [Example I-35, 1-(4-(6-chloro-8-fluoro-7-(2-fluoro-6-hydroxyphenyl)-2-((1-(2,2,2-trifluoroethyl)piperidin-4-yl)methoxy)quinazolin-4-yl)piperazin-1-yl)prop-2-en-1-one] | ++ (++ indicates binding activity from 50 to 90%) | 
11 | C=CC(=O)N1CCN(c2nc(OCCc3ccccn3)nc3c(F)c(-c4cc(O)cc5ccccc45)c(Cl)cc23)CC1 [Example I-44, 1-(4-(6-chloro-8-fluoro-7-(3-hydroxy-naphthalen-1-yl)-2-(2-(pyridin-2-yl)ethoxy)quinazolin-4-yl)piperazin-1-yl) prop-2-en-1-one] | +++ (+++ indicates binding activity greater than 90%) | 
12 | C=CC(=O)N1CCN(c2nc(SCCN3CCOCC3)nc3c(F)c(-c4c(O)cccc4F)c(Cl)cc23)CC1 [Example I-17, 1-(4-(6-chloro-8-fluoro-7-(2-fluoro-6-hydroxyphenyl)-2-(2-morpholino-ethylthio)quinazolin-4-yl)piperazin-1-yl)prop-2-en-1-one] | ++ (++ indicates binding activity from 50 to 90%) | 
13 | C=CC(=O)N1CCN(c2nc(Oc3cn[nH]c3)nc3c(F)c(-c4c(O)cccc4F)c(Cl)cc23)CC1 [Example I-64, 1-(4-(2-(1H-pyrazol-4-yloxy)-6-chloro-8-fluoro-7-(2-fluoro-6-hydroxyphenyl)quinazolin-4-yl)piperazin-1-yl) prop-2-en-1-one] | +++ (+++ indicates binding activity greater than 90%) | 
14 | C=CC(=O)N1CCN(c2nc(NC3CCN(c4ncccn4)CC3)nc3c(F)c(-c4c(C)ccc5[nH]ncc45)c(Cl)cc23)CC1 [Example I-184, 1-(4-(6-chloro-8-fluoro-7-(5-methyl-1H-indazol-4-yl)-2-((1-(pyrimidin-2-yl)piperidin-4-yl)amino)quinazolin-4-yl)piperazin-1-yl) prop-2-en-1-one] | + (+ indicates binding activity up to 50%) | 
15 | C=CC(=O)N1CCN(c2nc(OCCN(CC)CC)nc3c(F)c(-c4c(C)ccc5cn[nH]c45)c(Cl)cc23)CC1 [Example I-183, 1-(4-(6-chloro-2-(2-(diethyl-amino)ethoxy)-8-fluoro-7-(6-methyl-1H-indazol-7-yl)quinazolin-4-yl)piperazin-1-yl) prop-2-en-1-one] | +++ (+++ indicates binding activity greater than 90%) | 
16 | C=CC(=O)N1CCN(c2nc(NC3CCN(C4CC4)CC3)nc3c(F)c(-c4c(C)ccc5[nH]ncc45)c(Cl)cc23)CC1 (atropisomer, axis not shown) [Example I-81, (S)-1-(4-(6-chloro-2-(1-cyclopropyl-piperidin-4-ylamino)-8-fluoro-7-(5-methyl-1H-indazol-4-yl)quinazolin-4-yl)piperazin-1-yl)prop-2-en-1-one] | + (+ indicates binding activity up to 50%) | 
17 | C=CC(=O)N1CCN(c2nc(OCCc3ccc(C)nc3)nc3c(F)c(-c4c(O)cccc4F)c(Cl)cc23)CC1 [Example I-111, 1-(4-(6-chloro-8-fluoro-7-(2-fluoro-6-hydroxyphenyl)-2-(2-(6-methyl-pyridin-3-yl)ethoxy)quinazolin-4-yl)piperazin-1-yl) prop-2-en-1-one] | + (+ indicates binding activity up to 50%) | 
18 | C=CC(=O)N1CCN(c2nc(C#N)nc3c(F)c(-c4c(C)ccc5[nH]ncc45)c(Cl)cc23)CC1 [Example I-11, 4-(4-acryloyl-piperazin-1-yl)-6-chloro-8-fluoro-7-(5-methyl-1H-indazol-4-yl)quinazoline-2-carbonitrile] | +++ (+++ indicates binding activity greater than 90%) | 
19 | C=CC(=O)N1CCN(c2ncnc3c(F)c(-c4c(O)cccc4F)c(Cl)cc23)CC1CO (stereo not shown) [III-8, 1-(4-(6-chloro-8-fluoro-7-(2-fluoro-6-hydroxy-phenyl)quinazolin-4-yl)-2-(hydroxy-methyl)piperazin-1-yl)prop-2-en-1-one] |  | Binding % (compounds of structure (III)): ++ (++ indicates activity from 50% to 90%)

Source: patent US10829458B2 (Araxes Pharma LLC, priority 2015, dated 2020)
